Laboratory results as given in ChEMBL document CHEMBL1149669, “Sulfonamide derivatives as new potent and selective CB2 cannabinoid receptor agonists” (Bioorg Med Chem Lett, 2007).

Experiments:
[1] = species: Homo sapiens; assay: Selectivity for human CB2 receptor over human CB1 receptor
[2] = biological target: T1, Cannabinoid receptor 2 (Homo sapiens, UniProt P34972); assay: Agonist activity at human CB2 receptor expressed in CHO cells by [35S]GTP-gamma-S binding assay; assay type: functional, cell-based
T1 sequence (P34972 whole entry): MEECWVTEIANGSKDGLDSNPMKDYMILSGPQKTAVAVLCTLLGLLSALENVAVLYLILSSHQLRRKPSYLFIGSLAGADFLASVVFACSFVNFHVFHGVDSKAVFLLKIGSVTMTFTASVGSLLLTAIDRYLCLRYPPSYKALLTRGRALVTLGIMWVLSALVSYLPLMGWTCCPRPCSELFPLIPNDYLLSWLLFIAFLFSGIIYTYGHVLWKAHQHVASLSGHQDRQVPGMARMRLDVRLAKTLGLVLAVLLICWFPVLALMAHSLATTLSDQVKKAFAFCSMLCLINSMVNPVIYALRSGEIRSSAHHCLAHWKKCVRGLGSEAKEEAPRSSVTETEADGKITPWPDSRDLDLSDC

[3] = biological target: T1, Cannabinoid receptor 2; assay: Displacement of [3H]CP-55940 from human CB2 receptor expressed in CHO cells; assay type: cell-based
[4] = biological target: T1, Cannabinoid receptor 2; assay: Agonist activity at human CB2 receptor expressed in CHO cells by [35S]GTP-gamma-S binding assay relative to CP-55940; assay type: functional, cell-based
[5] = biological target: Cannabinoid receptor 1 (Homo sapiens, UniProt P21554); assay: Displacement of [3H]CP-55940 from human CB1 receptor expressed in CHO cells; assay type: cell-based
Sequence of Cannabinoid receptor 1 (P21554 whole entry): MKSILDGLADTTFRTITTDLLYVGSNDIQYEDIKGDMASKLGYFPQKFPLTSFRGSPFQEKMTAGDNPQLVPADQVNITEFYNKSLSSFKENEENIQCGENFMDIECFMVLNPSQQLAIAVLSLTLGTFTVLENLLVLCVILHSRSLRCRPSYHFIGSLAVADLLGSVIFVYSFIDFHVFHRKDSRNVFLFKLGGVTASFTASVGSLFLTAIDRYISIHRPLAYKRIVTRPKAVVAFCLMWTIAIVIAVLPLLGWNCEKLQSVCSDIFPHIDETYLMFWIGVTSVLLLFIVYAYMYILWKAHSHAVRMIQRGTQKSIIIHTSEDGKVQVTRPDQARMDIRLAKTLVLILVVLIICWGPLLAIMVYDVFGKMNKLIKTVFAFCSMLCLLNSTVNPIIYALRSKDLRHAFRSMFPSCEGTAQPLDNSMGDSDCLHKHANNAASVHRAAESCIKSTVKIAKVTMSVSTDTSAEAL

| Compound | Ratio IC50 [1] | EC50 [2] [µM] | IC50 [3] [µM] | Emax [4] [%] | IC50 [5] [µM] |
| --- | --- | --- | --- | --- | --- |
| Cc1c(C(C)(C)C)s/c(=N\S(=O)(=O)c2cccc3ccccc23)n1CC1CC1 | 106 | 0.0072 | 0.016 | 100 | 1.7 |
| Cc1c(C(C)(C)C)s/c(=N\S(=O)(=O)c2ccccc2)n1C |  | 0.11 | 0.34 | 110 | > 50 |
| C#CCn1c(C)c(C(C)(C)C)s/c1=N\S(=O)(=O)c1ccccc1 |  |  | 0.21 |  |  |
| C=CCn1c(C)c(C(C)(C)C)s/c1=N\S(=O)(=O)c1ccccc1 |  |  | 0.075 |  |  |
| Cc1c(C(C)(C)C)s/c(=N\S(=O)(=O)c2ccccc2)n1CC1CC1 |  |  | 0.065 |  |  |
| Cc1c(C(C)(C)C)s/c(=N\S(=O)(=O)c2ccc3ccccc3c2)n1CC1CC1 |  |  | 0.49 |  |  |
| CC(C)=CCn1c(C)c(C(C)(C)C)s/c1=N\S(=O)(=O)c1ccccc1 |  |  | 0.17 |  |  |
